Test [1] addresses T1, NMA1982 (Neisseria meningitidis, UniProt A1KVD0).
T1 construct: gene NMC1647

Test [2] addresses T1, NMA1982. This is another data set of the same source.

For orientation: Km means the concentration of substrate that gives half-maximal velocity. What is called IC50 is the point on the concentration scale where inhibition reaches its midpoint. The low end stands for higher potency, the high end for lower potency.

T1 sequence (A1KVD0 entry or part of it): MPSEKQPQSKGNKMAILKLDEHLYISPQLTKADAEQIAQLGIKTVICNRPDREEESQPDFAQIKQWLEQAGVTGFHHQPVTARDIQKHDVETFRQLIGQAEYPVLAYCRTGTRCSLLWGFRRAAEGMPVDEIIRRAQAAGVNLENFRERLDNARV

Take `Cc1cc(=O)oc2c(F)c(OP(=O)(O)O)c(F)cc12` [DiFMUP]: the Km at NMA1982 [1] was 35 µM.
On to `[O]=[V]([OH])([OH])[OH]` [sodium orthovanadate], for which 161 µM corresponded to half-maximal inhibition against NMA1982 [2] (IC50).

Values taken from publication PMC10716126, “Enzyme mechanistic studies of NMA1982, a protein tyrosine phosphatase and potential virulence factor in Neisseria meningitidis” (Scientific Reports, 2023).
